Reference: US20260297042A1, “BIARYLAMIDE DERIVATIVES AND THEIR USE AS PKMYT1 INHIBITORS” (CANCER RESEARCH TECHNOLOGY LIMITED, priority 2023, published 2026)
Where a name gives a salt, the structure may show the parent alone.

Columns and labels:
WEE1 = target: T1, WEE1 (Homo sapiens, UniProt P30291); assay: Selectivity versus WEE1 assay (ADP-Glo enzymatic assay); type: biochemical; conditions: banded; for IC50: ADP-Glo, 15 nM WEE1, 60 minutes at 26° C.; for PKMYT1 vs. WEE1 selectivity: fold difference in selectivity for PKMYT1 over WEE1, ">N" = at least in this band but could be higher
T1 construct: purchased Thermo Fisher PR7373A
T1 sequence (P30291 whole entry): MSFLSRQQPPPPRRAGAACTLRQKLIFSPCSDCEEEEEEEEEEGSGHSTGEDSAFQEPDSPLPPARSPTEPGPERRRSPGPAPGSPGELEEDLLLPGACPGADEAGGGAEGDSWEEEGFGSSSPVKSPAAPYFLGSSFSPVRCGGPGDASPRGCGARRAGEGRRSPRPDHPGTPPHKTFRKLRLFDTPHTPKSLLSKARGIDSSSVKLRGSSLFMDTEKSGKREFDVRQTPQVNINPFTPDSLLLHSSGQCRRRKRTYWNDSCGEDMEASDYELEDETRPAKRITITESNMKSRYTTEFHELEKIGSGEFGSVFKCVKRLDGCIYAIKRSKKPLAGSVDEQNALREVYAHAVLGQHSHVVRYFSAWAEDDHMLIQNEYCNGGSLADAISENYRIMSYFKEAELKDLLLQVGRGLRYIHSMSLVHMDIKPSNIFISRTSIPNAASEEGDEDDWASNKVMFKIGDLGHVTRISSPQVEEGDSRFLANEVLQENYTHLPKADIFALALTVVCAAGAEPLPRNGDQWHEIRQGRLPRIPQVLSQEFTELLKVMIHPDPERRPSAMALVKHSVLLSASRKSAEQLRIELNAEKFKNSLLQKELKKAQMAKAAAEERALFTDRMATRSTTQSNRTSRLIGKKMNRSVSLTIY
Outline: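 15 nM WEE1, 30 µM ATP, 50 mM HEPES pH 7.5, 10 mM MgCl2, 1 mM EGTA, 0.01% Brij-35, 1% DMSO; 60 min, 26° C; ADP-Glo luminescence; IC50 from curve fit, replicates within 3-fold, r2 >0.9.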

Human PKMYT1 = target: T2, Human PKMYT1 (Homo sapiens, UniProt Q99640); assay: PKMYT1 biochemical ADP-Glo enzymatic assay; conditions: ADP-Glo; 15 nM PKMYT1 kinase domain, 500 µM ATP, 60 minutes at 26° C.; banded
T2 construct: Human PKMYT1 75-362 was cloned as a TEV cleavable 6xHis fusion; 6xHis (TEV cleavable) (cleaved yes); made in house; host or cells: bacterial cells
T2 sequence (Q99640 75-362): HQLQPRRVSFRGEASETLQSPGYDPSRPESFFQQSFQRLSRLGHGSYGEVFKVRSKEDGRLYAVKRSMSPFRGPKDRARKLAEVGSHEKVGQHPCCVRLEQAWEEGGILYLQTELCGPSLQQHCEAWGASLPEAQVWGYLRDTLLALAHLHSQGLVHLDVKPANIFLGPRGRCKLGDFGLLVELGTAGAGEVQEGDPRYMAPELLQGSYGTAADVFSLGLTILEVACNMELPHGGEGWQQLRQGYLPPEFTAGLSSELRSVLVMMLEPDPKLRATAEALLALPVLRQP
Outline: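 PKMYT1 75-362 (His-cleaved, bacterial) 15 nM; ATP 500 µM; HEPES pH 7.5, MgCl2, EGTA, Brij-35, 1% DMSO; 60 min, 26 °C; ADP-Glo Max luminescence; 10-pt 3-fold titration → IC50; replicates within 3-fold, r2 >0.9.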

SMILES	IC50 (WEE1) [nM]	PKMYT1 vs. WEE1 selectivity (WEE1)	IC50 (Human PKMYT1) [nM]
Cc1csc(Nc2ncc(C(=O)Nc3c(C)ccc(O)c3C)s2)n1 [BAA-264, N-(3-hydroxy-2,6-dimethylphenyl)-2-((4-methylthiazol-2-yl)amino)thiazole-5-carboxamide]	> 11000	X (100-<1000 fold)	< 50
Cc1ccc(O)c(C)c1NC(=O)c1cnc(Nc2ncn(C)n2)s1 [BAA-265, N-(3-hydroxy-2,6-dimethylphenyl)-2-((1-methyl-1H-1,2,4-triazol-3-yl)amino)thiazole-5-carboxamide]	> 11000	X (100-<1000 fold)	< 50
Cc1ccc(O)c(C)c1NC(=O)c1cnc(Nc2nc(C)c(C)s2)s1 [BAA-266, 2-((4,5-dimethylthiazol-2-yl)amino)-N-(3-hydroxy-2,6-dimethylphenyl)thiazole-5-carboxamide]	> 11000	X (100-<1000 fold)	50 to 1000
Cc1ccc(O)c(C)c1NC(=O)c1cnc(Nc2nn(C)c3cc(Br)ccc23)s1 [BAA-267, 2-((6-bromo-1-methyl-1H-indazol-3-yl)amino)-N-(3-hydroxy-2,6-dimethylphenyl)thiazole-5-carboxamide]	> 11000	X (100-<1000 fold)	50 to 1000
Cc1cn(C2CN(C(=O)OC(C)(C)C)C2)nc1Nc1ncc(C(=O)Nc2c(C)ccc(O)c2C)s1 [BAA-272, tert-butyl 3-(3-((5-((3-hydroxy-2,6-dimethylphenyl)carbamoyl)thiazol-2-yl)amino)-4-methyl-1H-pyrazol-1-yl)azetidine-1-carboxylate]	50 to 1000	W (10-<100 fold)	< 50
Cc1cn(C2CNC2)nc1Nc1ncc(C(=O)Nc2c(C)ccc(O)c2C)s1 [BAA-273, 2-((1-(azetidin-3-yl)-4-methyl-1H-pyrazol-3-yl)amino)-N-(3-hydroxy-2,6-dimethylphenyl)thiazole-5-carboxamide hydrochloride]	50 to 1000	W (10-<100 fold)	< 50
Cc1ccc(O)c(C)c1NC(=O)c1cnc(Nc2ccc(S(C)(=O)=O)cc2)s1 [BAA-275, N-(3-Hydroxy-2,6-dimethylphenyl)-2-((4-(methylsulfonyl)phenyl)amino)thiazole-5-carboxamide]	> 11000	X (100-<1000 fold)	< 50
Cc1ccc(O)c(C)c1NC(=O)c1cnc(Nc2cccc(S(C)(=O)=O)c2)s1 [BAA-276, N-(3-hydroxy-2,6-dimethylphenyl)-2-((3-(methylsulfonyl)phenyl)amino)thiazole-5-carboxamide]	> 11000	Y (1000-5000 fold)	< 50
Cc1ccc(O)c(C)c1NC(=O)c1cnc(Nc2ccc(F)cc2F)s1 [BAA-277, 2-((2,4-difluorophenyl)amino)-N-(3-hydroxy-2,6-dimethylphenyl)thiazole-5-carboxamide]	> 11000	X (100-<1000 fold)	50 to 1000
Cc1ccc(O)c(C)c1NC(=O)c1cnc(Nc2ccc(C(F)(F)F)cc2)s1 [BAA-278, N-(3-hydroxy-2,6-dimethylphenyl)-2-((4-(trifluoromethyl)phenyl)amino)thiazole-5-carboxamide]	> 11000	W (10-<100 fold)	1000 to 11000
Cc1ccc(O)c(C)c1NC(=O)c1cnc(Nc2ncc(C(F)(F)F)cn2)s1 [BAA-279, N-(3-hydroxy-2,6-dimethylphenyl)-2-((5-(trifluoromethyl)pyrimidin-2-yl)amino)thiazole-5-carboxamide]	> 11000	Y (1000-5000 fold)	< 50
Cc1ccc(O)c(C)c1NC(=O)c1cnc(Nc2ccc(C(F)(F)F)cn2)s1 [BAA-280, N-(3-hydroxy-2,6-dimethylphenyl)-2-((5-(trifluoromethyl)pyridin-2-yl)amino)thiazole-5-carboxamide]	> 11000	Y (1000-5000 fold)	50 to 1000

The next lines start with the values.

IC50 (WEE1) [nM]	PKMYT1 vs. WEE1 selectivity (WEE1)	IC50 (Human PKMYT1) [nM]	SMILES
> 11000	X (100-<1000 fold)	50 to 1000	Cc1ccc(O)c(C)c1NC(=O)c1cnc(Nc2ccc(C(C)(C)C)cc2)s1 [BAA-281, 2-((4-(tert-butyl)phenyl)amino)-N-(3-hydroxy-2,6-dimethylphenyl)thiazole-5-carboxamide]
> 11000	W (10-<100 fold)	1000 to 11000	Cc1ccc(O)c(C)c1NC(=O)c1cnc(Nc2ccc(F)c(C#N)c2)s1 [BAA-282, 2-((3-cyano-4-fluorophenyl)amino)-N-(3-hydroxy-2,6-dimethylphenyl)thiazole-5-carboxamide]
> 11000	W (10-<100 fold)	1000 to 11000	Cc1ccc(O)c(C)c1NC(=O)c1cnc(Nc2ccc(C#N)c(F)c2)s1 [BAA-283, 2-((4-cyano-3-fluorophenyl)amino)-N-(3-hydroxy-2,6-dimethylphenyl)thiazole-5-carboxamide]
> 11000	W (10-<100 fold)	1000 to 11000	Cc1ccc(O)c(C)c1NC(=O)c1cnc(Nc2cccc(S(=O)(=O)C(F)(F)F)c2)s1 [BAA-284, N-(3-hydroxy-2,6-dimethylphenyl)-2-((3-((trifluoromethyl)sulfonyl)phenyl)amino) thiazole-5-carboxamide]
> 11000	W (10-<100 fold)	1000 to 11000	Cc1ccc(O)c(C)c1NC(=O)c1cnc(Nc2ccc(S(=O)(=O)C(F)(F)F)cc2)s1 [BAA-285, N-(3-hydroxy-2,6-dimethylphenyl)-2-((4. ((trifluoromethyl)sulfonyl)phenyl)amino) thiazole-5-carboxamide]
> 11000	W (10-<100 fold)	1000 to 11000	Cc1ccc(O)c(C)c1NC(=O)c1cnc(Nc2cccc(S(=O)(=O)N3CC(F)(F)C(F)(F)C3)c2)s1 [BAA-286, N-(3-hydroxy-2,6-dimethylphenyl)-2-((3-((3,3,4,4-tetrafluoropyrrolidin-1-yl)sulfonyl)phenyl)amino)thiazole-5-carboxamide]
> 11000	Y (1000-5000 fold)	< 50	Cc1ccc(O)c(C)c1NC(=O)c1cnc(Nc2cc(Cl)nc(C(F)(F)F)n2)s1 [BAA-287, 2-((6-chloro-2-(trifluoromethyl)pyrimidin-4-yl)amino)-N-(3-hydroxy-2,6-dimethylphenyl)thiazole-5-carboxamide]
> 11000	X (100-<1000 fold)	50 to 1000	Cc1ccc(O)c(C)c1NC(=O)c1cnc(Nc2ccc3cc(F)ccc3n2)s1 [BAA-288, 2-((6-fluoroquinolin-2-yl)amino)-N-(3-hydroxy-2,6-dimethylphenyl)thiazole-5-carboxamide]
1000 to 11000	X (100-<1000 fold)	< 50	Cc1ccc(O)c(C)c1NC(=O)c1cnc(Nc2cccc(C(=O)N3CC4CCC3C4)c2)s1 (stereo not drawn) [BAA-289, 2-((3-(2-azabicyclo[2.2.1]heptane-2-carbonyl)phenyl)amino)-N-(3-hydroxy-2,6-dimethylphenyl)thiazole-5-carboxamide]
> 11000	X (100-<1000 fold)	50 to 1000	Cc1ccc(O)c(C)c1NC(=O)c1cnc(Nc2cc3cc(F)ccc3cn2)s1 [BAA-290, 2-((6-fluoroisoquinolin-3-yl)amino)-N-(3-hydroxy-2,6-dimethylphenyl)thiazole-5-carboxamide]
> 11000	Y (1000-5000 fold)	< 50	Cc1ccc(O)c(C)c1NC(=O)c1cnc(Nc2nccc(-c3ccc(Cl)cc3)n2)s1 [BAA-293, 2-((4-(4-chlorophenyl)pyrimidin-2-yl)amino)-N-(3-hydroxy-2,6-dimethylphenyl)thiazole-5-carboxamide]
> 11000	Y (1000-5000 fold)	50 to 1000	Cc1ccc(O)c(C)c1NC(=O)c1cnc(Nc2nc(C)c(Br)c(C)n2)s1 [BAA-295, 2-((5-bromo-4,6-dimethylpyrimidin-2-yl)amino)-N-(3-hydroxy-2,6-dimethylphenyl)thiazole-5-carboxamide]
> 11000	Y (1000-5000 fold)	< 50	Cc1ccc(O)c(C)c1NC(=O)c1cnc(Nc2ncc3cc(F)ccc3n2)s1 [BAA-296, 2-((6-fluoroquinazolin-2-yl)amino)-N-(3-hydroxy-2,6-dimethylphenyl)thiazole-5-carboxamide]
> 11000	Y (1000-5000 fold)	50 to 1000	Cc1ccc(C(=O)Nc2ccc(Nc3ncc(C(=O)Nc4c(C)ccc(O)c4C)s3)nc2)c(C)c1 [BAA-297, 2-((5-(2,4-dimethylbenzamido)pyridin-2-yl)amino)-N-(3-hydroxy-2,6-dimethylphenyl)thiazole-5-carboxamide]
